From ChEMBL document CHEMBL1129092, “Structure-activity relationship study on N-glycosyl moieties through model building of DNA and ellipticine N-glycoside complex” (1996)
Active and inactive are the calls of the source. No cut-off for these calls is given here.

What was measured:
[1] = organism: Mus musculus; assay: Compound was tested for antitumor activity against L1210 in mice; Active; format: functional, organism-based
[2] = system: L1210; assay: Antitumor activity against L1210 in mice, after ip administration at 30 mg/kg for 5 consecutive days, expressed as average % of life time in 6 mice, treated mice/control; format: functional, Mus musculus; settings: route intraperitoneal
[3] = organism: Mus musculus; assay: Compound was tested for antitumor activity against L1210 in mice; Inactive; format: functional, organism-based

| Structure (SMILES) | Activity Score [1] | T/C [2] | Activity Score [3] |
| --- | --- | --- | --- |
| CO[C@@H]1[C@@H](O)[C@H]([n+]2ccc3c(C)c4[nH]c5ccc(O)cc5c4c(C)c3c2)OC[C@@H]1O.[Br-] | Active | 169% | – |
| CO[C@H]1CO[C@@H]([n+]2ccc3c(C)c4[nH]c5ccc(O)cc5c4c(C)c3c2)[C@H](O)[C@H]1O.[Br-] | Active | 167% | – |
| CO[C@@H]1[C@@H](O)[C@@H](O)CO[C@H]1[n+]1ccc2c(C)c3[nH]c4ccc(O)cc4c3c(C)c2c1.[Br-] | – | 123% | inactive |
| Cc1c2cc[n+]([C@@H]3OC[C@H](O)[C@H](O)[C@H]3O)cc2c(C)c2c1[nH]c1ccc(O)cc12.[Br-] | Active | >960% | – |
